# Measurements from patent US20260226019A1, “NEGATIVE ALLOSTERIC MODULATORS OF METABOTROPIC GLUTAMATE RECEPTOR 2” (Vanderbilt University, priority 2023, published 2026).
# pIC50: −log10 of the molar value.
# How the values were obtained:
# [1] = target: T1, human mGlu3 (Homo sapiens, UniProt Q14832); experiment: mGlu GIRK cell-based thallium flux assay, human mGlu3; conditions: HEK-293 cells co-expressing human mGlu3 and GIRK, EC80 glutamate, single experiment
# T1 construct: expressed in transfected cells; host or cells: HEK-293 stably co-expressing GIRK channels
# T1 sequence (Q14832 23-879): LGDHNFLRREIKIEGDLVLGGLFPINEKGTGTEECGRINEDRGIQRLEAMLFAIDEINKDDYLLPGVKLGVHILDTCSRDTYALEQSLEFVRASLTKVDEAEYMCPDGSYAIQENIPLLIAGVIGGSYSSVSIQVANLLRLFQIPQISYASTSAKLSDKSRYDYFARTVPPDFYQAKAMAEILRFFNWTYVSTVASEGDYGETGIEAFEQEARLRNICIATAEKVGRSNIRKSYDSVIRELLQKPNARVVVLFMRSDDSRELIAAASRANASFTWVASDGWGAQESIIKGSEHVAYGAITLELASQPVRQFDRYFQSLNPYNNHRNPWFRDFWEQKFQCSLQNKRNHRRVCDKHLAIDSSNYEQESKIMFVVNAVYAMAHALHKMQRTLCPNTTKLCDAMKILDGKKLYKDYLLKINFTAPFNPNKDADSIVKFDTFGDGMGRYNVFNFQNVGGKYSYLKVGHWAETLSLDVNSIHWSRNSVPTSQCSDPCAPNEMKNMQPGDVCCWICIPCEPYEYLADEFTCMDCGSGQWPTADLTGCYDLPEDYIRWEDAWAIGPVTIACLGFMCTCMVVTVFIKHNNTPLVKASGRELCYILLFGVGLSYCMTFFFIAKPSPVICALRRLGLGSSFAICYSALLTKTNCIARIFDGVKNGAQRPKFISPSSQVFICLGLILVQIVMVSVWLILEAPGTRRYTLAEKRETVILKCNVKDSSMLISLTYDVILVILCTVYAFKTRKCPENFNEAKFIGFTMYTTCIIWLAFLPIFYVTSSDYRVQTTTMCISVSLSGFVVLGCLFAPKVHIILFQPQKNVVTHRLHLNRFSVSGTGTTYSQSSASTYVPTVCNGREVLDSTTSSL
# Protocol: (§1) Human embryonic kidney (HEK-293) cell lines stably co-expressing human or rat mGlu2 and G protein-coupled inwardly rectifying potassium (GIRK) channels, or human mGlu3 and GIRK, were used for in vitro evaluation of compound activity in thallium flux assay using a fluorescent thallium indicator dye.
# (§2) The day before the assay, GIRK cells co-expressing human mGlu3, human or rat mGlu2, as described above, were plated in black-walled, clear-bottomed, amine-coated 384-well plates at a density of 15,000 cells/[…]/well in the assay medium (glutamine-depleted basal DMEM supplemented with 10% dialyzed FBS, 20 mM HEPES, 1 mM sodium pyruvate). Cells were incubated at 37° C. in the presence of 5% CO2. The next day, assay buffer (Hanks balanced salt solution, 20 mM HEPES, 4.16 mM sodium bicarbonate, pH 7.2) was prepared to dilute compounds and Thallos AM fluorescent dye solution. The 2× Thallos dye solution (final concentration 0.34 μM to the cells) was prepared by mixing the dye stock (2.97 mM in DMSO) to 1:1 with 10% pluronic acid before adding to the assay buffer. Cells were washed with assay buffer using a microplate washer to remove the medium, resulting in 20 μL of buffer remaining in each well. […] During the cell dye loading incubation period, a 10-point concentration serial dilution of compound was created from a 10 mM DMSO compound stock by performing a 1:3 serial dilution in DMSO using the Bravo liquid handler. The 2× compound plate was generated by transferring 0.24 μL of the diluted compound in each well to a daughter plate using an Echo acoustic liquid handler. This is further diluted in 40 μL assay buffer, resulting in a range from […] to 1.5 nM final concentration in the assay. The agonist plate (5×) was prepared to include EC80 glutamate concentration (a concentration to elicit 80% of a maximally effective glutamate concentration) in thallium buffer (125 mM sodium bicarbonate, 1 mM magnesium sulfate, 1.8 mM calcium sulfate, 5 mM glucose, 10 mM HEPES, pH 7.2, 12.5 mM thallium sulfate).
# (§3) After dye-loading, cell plates were washed with assay buffer to remove excess extracellular dye using a microplate washer, resulting in 20 μL of buffer remaining in each well. After a ten-minute equilibration period, cell, compound and agonist plates were loaded into a Hamamatsu μCell kinetic imaging plate reader equipped with liquid handler to monitor fluorescence changes at 480 nm excitation and 540 nm emission settings. Briefly, after collection of baseline fluorescence, 20 μL of compound was added and incubated for two minutes and twenty seconds. This is immediately followed by adding 10 μL of glutamate-thallium buffer to the wells containing compound. The fluorescent signal was monitored an additional 2.5 minutes after the glutamate addition. Multiple reference wells containing no compound received either no glutamate (for a baseline reference), EC80 glutamate, or ECmax glutamate (for normalization to maximum response). […] Each compound concentration series occurred one time in each plate, and replicates from two or three plates were used in each experimental run. Thallium solutions were handled and disposed of according to guidelines from the Vanderbilt University Chemical Safety department.
# (§4) Data were normalized using a static ratio function (F/F0) by dividing every fluorescent measurement by the initial fluorescent value for the corresponding well. The increase in signal resulting from the glutamate/thallium addition of the second add was measured by determining the slope from 3 seconds to 13 seconds after the addition. The average of all baseline slopes (no compound, no glutamate) was determined and this value was subtracted from all other slope values. The average of all ECmax slopes was determined and this value was used to normalize the baseline-corrected slopes to a percent max value (% Emax).
# [2] = target: T2, human mGlu2 (Homo sapiens, UniProt Q14416); experiment: mGlu GIRK cell-based thallium flux assay, human mGlu2; conditions: HEK-293 cells co-expressing human mGlu2 and GIRK, EC80 glutamate, single experiment
# T2 construct: expressed in transfected cells; host or cells: HEK-293 stably co-expressing GIRK channels
# T2 sequence (Q14416 19-872): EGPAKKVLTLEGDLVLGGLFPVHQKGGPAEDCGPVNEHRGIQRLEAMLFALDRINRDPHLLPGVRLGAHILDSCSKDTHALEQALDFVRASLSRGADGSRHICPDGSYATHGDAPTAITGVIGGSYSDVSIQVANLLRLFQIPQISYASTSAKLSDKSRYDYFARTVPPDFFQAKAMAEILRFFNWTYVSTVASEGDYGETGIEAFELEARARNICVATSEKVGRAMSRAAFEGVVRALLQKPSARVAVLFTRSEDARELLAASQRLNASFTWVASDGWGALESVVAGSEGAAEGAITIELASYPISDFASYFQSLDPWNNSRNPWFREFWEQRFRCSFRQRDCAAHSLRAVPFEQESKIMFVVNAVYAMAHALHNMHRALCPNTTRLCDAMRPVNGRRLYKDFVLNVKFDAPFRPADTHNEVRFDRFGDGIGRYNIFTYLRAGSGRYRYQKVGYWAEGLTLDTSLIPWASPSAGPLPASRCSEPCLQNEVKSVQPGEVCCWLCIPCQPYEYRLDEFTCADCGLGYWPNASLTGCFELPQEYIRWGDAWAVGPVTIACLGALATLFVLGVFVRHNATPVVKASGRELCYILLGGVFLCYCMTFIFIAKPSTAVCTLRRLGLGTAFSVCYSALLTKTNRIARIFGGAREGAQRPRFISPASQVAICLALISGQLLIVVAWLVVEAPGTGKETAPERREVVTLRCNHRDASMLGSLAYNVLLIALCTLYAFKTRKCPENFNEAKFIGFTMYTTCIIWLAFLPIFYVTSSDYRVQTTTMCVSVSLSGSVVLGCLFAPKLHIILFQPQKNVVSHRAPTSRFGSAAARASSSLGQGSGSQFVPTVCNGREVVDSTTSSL
# Protocol: as §1, §2, §3, §4
Structure (SMILES),pIC50 [2],also measured
"Cc1cc(-c2cc(-c3ccc(F)cc3F)cc3c2CNC3=O)n(C)n1 [Compound 79, 6-(2,4-difluorophenyl)-4-(1,3-dimethyl-1H-pyrazol-5-yl)isoindolin-1-one]",–,pIC50 [1]: < 5.00
"O=C1NCc2c1cc(-c1ccc(F)cc1F)cc2-c1ccc(=O)n(C(F)F)c1 [Compound 40, 4-(1-(difluoromethyl)-6-oxo-1,6-dihydropyridin-3-yl)-6-(2,4-difluorophenyl)isoindolin-1-one]",7.18,Human mGlu3 GIRK IC50 (nM) [1]: Inactive
"CC(C)Cn1nccc1-c1cc(-c2ccc(F)cc2F)cc2c1CNC2=O [Compound 76, 6-(2,4-difluorophenyl)-4-(1-isobutyl-1H-pyrazol-5-yl)isoindolin-1-one]",6.75,pIC50 [1]: < 5.00
"CC(C)Oc1cc(-c2cc3c(c(-c4cnsc4)c2)CNC3=O)ccc1C#N [Compound 62, 2-isopropoxy-4-(7-(isothiazol-4-yl)-3-oxoisoindolin-5-yl)benzonitrile]",–,pIC50 [1]: < 5.00; Human mGlu2 GIRK IC50 (nM) [2]: Inactive
"O=C1NCc2c(CN3CCOCC3)cc(-c3ccc(F)cc3F)cc21 [Compound B2, 6-(2,4-difluorophenyl)-4-(morpholinomethyl)isoindolin-1-one]",6.74,pIC50 [1]: < 5.00
"COc1cc(C#N)ccc1-c1cc2c(c(-c3cnsc3)c1)CNC2=O [Compound 53, 4-(7-(isothiazol-4-yl)-3-oxoisoindolin-5-yl)-3-methoxybenzonitrile]",–,Human mGlu2 GIRK IC50 (nM) [2]: Inactive
"Cc1c(-c2cc(C3=CCOCC3)cc3c2CNC3=O)cnn1C [Compound 93, 6-(3,6-dihydro-2H-pyran-4-yl)-4-(1,5-dimethyl-1H-pyrazol-4-yl)isoindolin-1-one]",6.59,–
"Cc1cc(-c2cc(C3=CCOCC3)cc3c2CNC3=O)n(C)n1 [Compound 96, 6-(3,6-dihydro-2H-pyran-4-yl)-4-(1,3-dimethyl-1H-pyrazol-5-yl)isoindolin-1-one]",6.42,–
"O=C1NCc2c1cc(-c1ccc(F)cc1F)cc2-c1ccco1 [Compound 29, 6-(2,4-difluorophenyl)-4-(furan-2-yl)isoindolin-1-one]",–,Human mGlu2 GIRK IC50 (nM) [2]: Inactive
"Cc1sc(C)c(-c2cc(-c3ccc(F)cc3F)cc3c2CNC3=O)c1C [Compound 20, 6-(2,4-difluorophenyl)-4-(2,4,5-trimethylthiophen-3-yl)isoindolin-1-one]",5.28,–
"O=C1NCc2c1cc(-c1ccc(F)cc1F)cc2-c1ccc2ccncc2c1 [Compound 26, 6-(2,4-difluorophenyl)-4-(isoquinolin-7-yl)isoindolin-1-one]",5.57,–
"COc1cc(F)ccc1-c1cc2c(c(-c3cnsc3)c1)CNC2=O [Compound 48, 6-(4-fluoro-2-methoxyphenyl)-4-(isothiazol-4-yl)isoindolin-1-one]",< 5.00,–
"CCn1nccc1-c1cc(C2=CCOCC2)cc2c1CNC2=O [Compound 95, 6-(3,6-dihydro-2H-pyran-4-yl)-4-(1-ethyl-1H-pyrazol-5-yl)isoindolin-1-one]",6.49,–
"COc1cc(-c2cc(-c3ccc(F)cc3F)cc3c2CNC3=O)cc(C)n1 [Compound 91, 6-(2,4-difluorophenyl)-4-(2-methoxy-6-methylpyridin-4-yl)isoindolin-1-one]",6.36,–
"O=C1NCc2c1cc(-c1ccc(F)cc1F)cc2-c1ccc2cccnc2c1 [Compound 22, 6-(2,4-difluorophenyl)-4-(quinolin-7-yl)isoindolin-1-one]",5.62,–
"O=C1NCc2c1cc(-c1c(F)cc(F)cc1F)cc2-c1cnsc1 [Compound 45, 4-(isothiazol-4-yl)-6-(2,4,6-trifluorophenyl)isoindolin-1-one]",5.68,–
"N#Cc1c(F)cc(-c2cc3c(c(-c4cnsc4)c2)CNC3=O)cc1F [Compound 57, 2,6-difluoro-4-(7-(isothiazol-4-yl)-3-oxoisoindolin-5-yl)benzonitrile]",–,Human mGlu2 GIRK IC50 (nM) [2]: Inactive
"O=C1NCc2c1cc(-c1ccc(OC(F)F)cc1F)cc2-c1cnsc1 [Compound 46, 6-(4-(difluoromethoxy)-2-fluorophenyl)-4-(isothiazol-4-yl)isoindolin-1-one]",< 5.00,–
"Cc1cc(-c2cc3c(c(-c4cnsc4)c2)CNC3=O)c(F)cn1 [Compound 61, 6-(5-fluoro-2-methylpyridin-4-yl)-4-(isothiazol-4-yl)isoindolin-1-one]",5.92,–
"O=C1NCc2c1cc(-c1ccc(F)cc1F)cc2-c1ccc2nccnc2c1 [Compound 27, 6-(2,4-difluorophenyl)-4-(quinoxalin-6-yl)isoindolin-1-one]",5.74,–
"O=C1NCc2c1cc(-c1ccc(F)cc1F)cc2-c1ccc2ncccc2c1 [Compound 24, 6-(2,4-difluorophenyl)-4-(quinolin-6-yl)isoindolin-1-one]",5.78,–
"O=C1NCc2c1cc(-c1ccc(F)cc1F)cc2-c1cncnc1 [Compound 37, 6-(2,4-difluorophenyl)-4-(pyrimidin-5-yl)isoindolin-1-one]",6.02,–
"Cc1c(-c2cc(C3CCOCC3)cc3c2CNC3=O)cnn1C [Compound 99, 4-(1,5-dimethyl-1H-pyrazol-4-yl)-6-(tetrahydro-2H-pyran-4-yl)isoindolin-1-one]",5.53,–
"COc1cc(F)c(-c2cc3c(c(-c4cnsc4)c2)CNC3=O)c(F)c1 [Compound 56, 6-(2,6-difluoro-4-methoxyphenyl)-4-(isothiazol-4-yl)isoindolin-1-one]",< 5.00,–

# Now from value to compound, other results behind:
pIC50 [2],Structure (SMILES),also measured
6.41,"N#CC1CCCN(c2cc(-c3ccc(F)cc3F)cc3c2CNC3=O)C1 (stereo not drawn) [Compound A10, 1-(6-(2,4-difluorophenyl)-1-oxoisoindolin-4-yl)piperidine-3-carbonitrile]",pIC50 [1]: < 5.00
5.83,"CN1CCCC(c2cc(-c3ccc(F)cc3F)cc3c2CNC3=O)C1 (stereo not drawn) [Compound B3, 6-(2,4-difluorophenyl)-4-(1-methylpiperidin-3-yl)isoindolin-1-one]",pIC50 [1]: < 5.00
5.68,"CC1(C)CN(c2cc(-c3ccc(F)cc3F)cc3c2CNC3=O)CC(C)(C)O1 [Compound A6, 6-(2,4-difluorophenyl)-4-(2,2,6,6-tetramethylmorpholino)isoindolin-1-one]",Human mGlu3 GIRK IC50 (nM) [1]: Inactive
7.00,"Cc1ccc(-c2cc(-c3ccc(F)cc3F)cc3c2CNC3=O)cn1 [Compound 5, 6-(2,4-difluorophenyl)-4-(6-methylpyridin-3-yl)isoindolin-1-one]",pIC50 [1]: < 5.00
6.19,"CC(C)(O)C1CCN(c2cc(-c3ccc(F)cc3F)cc3c2CNC3=O)C1 (stereo not drawn) [Compound A8, 6-(2,4-difluorophenyl)-4-(3-(2-hydroxypropan-2-yl)pyrrolidin-1-yl)isoindolin-1-one]",Human mGlu3 GIRK IC50 (nM) [1]: Inactive
5.59,"O=C1NCc2c1cc(-c1ccc(F)cc1F)cc2-c1cnn(C2CCC2)c1 [Compound 17, 4-(1-cyclobutyl-1H-pyrazol-4-yl)-6-(2,4-difluorophenyl)isoindolin-1-one]",–
5.51,"Cn1cc(-c2cc(-c3ccc(F)cc3F)cc3c2CNC3=O)cc1C#N [Compound 14, 4-(6-(2,4-difluorophenyl)-1-oxoisoindolin-4-yl)-1-methyl-1H-pyrrole-2-carbonitrile]",–
< 5.00,"Cn1cc2c(n1)CN(c1cc(-c3ccc(F)cc3F)cc3c1CNC3=O)C2 [Compound A22, 6-(2,4-difluorophenyl)-4-(2-methyl-2,6-dihydropyrrolo[3,4-c]pyrazol-5(4H)-yl)isoindolin-1-one]",–
6.93,"Cc1ccncc1-c1cc(-c2ccc(F)cc2F)cc2c1CNC2=O [Compound 89, 6-(2,4-difluorophenyl)-4-(4-methylpyridin-3-yl)isoindolin-1-one]",–
